Laboratory results reported in patent US7495114B2, “Cytotoxic agents containing novel potent taxanes and their therapeutic use” (Immunogen Inc., priority 2002, dated 2009).

Assays:
Assay type in all cases: cell-based, human
A431 cells = assay: In vitro cytotoxicity of taxanes, plating efficiency (clonogenic) assay, A431; conditions: read-out: IC50 value towards A431 cells
Source text: (§1) The sulfide, disulfide, and sulfhydryl containing taxane drugs of the invention can be evaluated for their ability to suppress proliferation of various human tumor cell lines in vitro. Four adherent cell lines, A431 (human epidermoid carcinoma), SKBR3 (human breast tumor), A549 (human lung carcinoma) and MCF-7 (human breast tumor), and the non-adherent cell line, Namalwa (Burkitt's lymphoma) are used for the assessment of cytotoxicity of these compounds. Cells are exposed to the compounds for 72 hours and the surviving fractions of cells are measured in direct assays.
A431, A549 and MCF-7 cells were plated at different densities in 6-well tissue-culture plates in DMEM medium supplemented with 10% fetal calf serum. Taxane 2′, at varying concentrations, was added and the cells were maintained in a humidified atmosphere at 37° C. and 6% CO2 until colonies of approximately 20 cells or more were formed (6 to 10 days). Control plates contained no taxane. The cells were then fixed with formaldehyde, stained with crystal violet, and counted under a low-magnification microscope. Plating efficiencies were then determined from the colony numbers and surviving fractions of cells were calculated as the ratio of the plating efficiency of the treated sample and the plating efficiency of the control.

A549 cells = assay: In vitro cytotoxicity of taxanes, plating efficiency (clonogenic) assay, A549; conditions: read-out: IC50 value towards A549 cells
Source text: (§2) The new taxanes and the disulfide containing taxane drugs of the invention can be evaluated for their ability to suppress proliferation of human tumor cell lines in vitro.
as §1
(§3) The cytotoxic potency of taxane 3′ was similarly confirmed. […] The cells were then fixed with formaldehyde, stained with crystal violet, and counted under a low-magnification microscope. Plating efficiencies were then determined from the colony numbers and surviving fractions of cells were calculated as the ratio of the plating efficiency of the treated sample and the plating efficiency of the control.
(§4) The new taxoids and the disulfide containing taxane drugs of the invention were evaluated for their ability to suppress proliferation of human tumor cell lines in vitro. […]
(§5) 18 and 37 was measured as follows. […]

MCF-7 cells = assay: In vitro cytotoxicity of taxanes, plating efficiency (clonogenic) assay, MCF-7; conditions: read-out: IC50 value towards MCF-7 cells
Source text: as §2, §1, §3, §4, §5

Row | Compound | IC50 (A431 cells) [pM] | IC50 (A549 cells) [pM] | IC50 (MCF-7 cells) [pM]
1 | 3′-dephenyl-3′-(isobutenyl)-7-(methyldisulfonyl-propanoyl)-docetaxel [Taxane 2′] | 800 | – | –
2 | COc1ccc(OC)c(C(=O)OC2C3C4(OC(C)=O)COC4CC(OC(=O)CCSSC)C3(C)C(=O)C(O)C3=C(C)C(OC(=O)C(O)C(C=C(C)C)NC(=O)OC(C)(C)C)CC2(O)C3(C)C)c1 (stereo not drawn) [Taxane 3′, 3′-dephenyl-3′-(isobutenyl)-2-debenzoyl-2-(2,5-dimethoxybenzoyl)-7-(methyldisulfonyl-propanoyl)-docetaxel] | – | 180 | 63
